The results in this text go back to patent EP4104902B1, “COMPOUNDS AND M[…] SAME” (priority 2020, dated 2021).

Each structure is given as a SMILES string. pIC50: −log10 of the molar value.

For the experiment, the system named is recombinant rabies virus 1088 strain expressing Gaussia Luciferase (GLuc) (1088/GLuc). The class given is cell-based. The settings on record: read-out: Anti-rabies activity.

As for `CC(C)CNC(=O)[C@@]12C[C@@H]3CN(Cc4ccc(F)cc4)[C@@H]([C@@H]3CN1)[C@H]2CC(N)=O` (relative stereo) [IF-262], the pIC50 was over 5.30. Take `NC(=O)C[C@@H]1[C@@H]2[C@@H]3CN[C@@]1(C(=O)NCCc1ccccc1)C[C@@H]3CN2Cc1ccc(F)cc1` (relative stereo) [IF-269]: the pIC50 was 4.52 to 5.00.

On to `CC(C)NC(=O)[C@@]12C[C@@H]3CN(Cc4ccc(F)cc4)[C@@H]([C@@H]3CN1)[C@H]2CCCNC(=N)N` (relative stereo) [IF-274], for which the pIC50 is 4.52 to 5.00. With `N=C(N)NCCC[C@@H]1[C@@H]2[C@@H]3CN[C@@]1(C(=O)NCc1cccc4ccccc14)C[C@@H]3CN2Cc1ccccc1` (relative stereo) [IF-284], the pIC50 was 4.52 to 5.00.

Consider `CCCCCCNC(=O)[C@@]12C[C@@H]3CN(Cc4ccccc4)[C@@H]([C@@H]3CN1)[C@H]2CCCNC(=N)N` (relative stereo) [IF-285], for which the pIC50 was 4.52 to 5.00. For `N=C(N)NCCC[C@@H]1[C@@H]2[C@@H]3CN[C@@]1(C(=O)NCc1cccc4ccccc14)C[C@@H]3CN2Cc1ccc(F)cc1` (relative stereo) [IF-297] the value was 4.52 to 5.00; for `CCCCCCNC(=O)[C@@]12C[C@@H]3CN(Cc4ccc(F)cc4)[C@@H]([C@@H]3CN1)[C@H]2CCCNC(=N)N` (relative stereo) [IF-298], 4.52 to 5.00; for `CC(C)CC[C@@H]1[C@@H]2[C@@H]3CN[C@@]1(C(=O)NCCC(N)=O)C[C@@H]3CN2CC(C)C` (relative stereo) [IF-300], 4.52 to 5.00.

With `CC(C)CC[C@@H]1[C@@H]2[C@@H]3CN[C@@]1(C(=O)NCCC(N)=O)C[C@@H]3CN2Cc1cccc2ccccc12` (relative stereo) [IF-384], the pIC50 is 4.52 to 5.00. As to `N=C(N)NCCCNC(=O)[C@@]12C[C@@H]3CN(Cc4cccc5ccccc45)[C@@H]([C@@H]3CN1)[C@H]2Cc1ccccc1` (relative stereo) [IF-386], the pIC50 is 4.52 to 5.00.

As for `N=C(N)NCCCNC(=O)[C@@]12C[C@@H]3CN(Cc4cccc5ccccc45)[C@@H]([C@@H]3CN1)[C@H]2CCc1ccccc1` (relative stereo) [IF-389], the pIC50 was over 5.30. For `N=C(N)NCCCNC(=O)[C@@]12C[C@@H]3CN(Cc4cccc5ccccc45)[C@@H]([C@@H]3CN1)[C@H]2Cc1cccc2ccccc12` (relative stereo) [IF-390] the value was 4.52 to 5.00; for `CC(C)CC[C@@H]1[C@@H]2[C@@H]3CN[C@@]1(C(=O)NCC(C)C)C[C@@H]3CN2Cc1ccccc1` (relative stereo) [IF-411], over 5.30; for `CC(C)CC[C@@H]1[C@@H]2[C@@H]3CN[C@@]1(C(=O)NCC(C)C)C[C@@H]3CN2CC(C)C` (relative stereo) [IF-412], over 5.30. For `CC(C)CCN1C[C@H]2C[C@]3(C(=O)NCCC(=O)O)NC[C@H]2[C@H]1[C@H]3Cc1cccc2ccccc12` (relative stereo) [IF-413] the value was 4.52 to 5.00; for `CC(C)CCN1C[C@H]2C[C@]3(C(=O)NCc4ccc(O)cc4)NC[C@H]2[C@H]1[C@H]3CCc1ccccc1` (relative stereo) [IF-464], 4.52 to 5.00; for `CC(C)CCN1C[C@H]2C[C@]3(C(=O)NCc4ccc(O)cc4)NC[C@H]2[C@H]1[C@H]3Cc1cccc2ccccc12` (relative stereo) [IF-465], 4.52 to 5.00. Under `CC(C)CCN1C[C@H]2C[C@]3(C(=O)NCc4ccc(O)cc4)NC[C@H]2[C@H]1[C@H]3Cc1ccccc1` (relative stereo) [IF-466] stands 4.52 to 5.00; under `CC(C)CC[C@@H]1[C@@H]2[C@@H]3CN[C@@]1(C(=O)NCc1ccc(O)cc1)C[C@@H]3CN2CCc1ccccc1` (relative stereo) [IF-468], 4.52 to 5.00; under `O=C(NCc1ccc(O)cc1)[C@@]12C[C@@H]3CN(CCc4ccccc4)[C@@H]([C@@H]3CN1)[C@H]2Cc1ccccc1` (relative stereo) [IF-469], 4.52 to 5.00. Consider `CC(C)C[C@@H]1[C@@H]2[C@@H]3CN[C@@]1(C(=O)NCc1ccc(O)cc1)C[C@@H]3CN2CCc1ccccc1` (relative stereo) [IF-470], for which the pIC50 is 4.52 to 5.00. As to `O=C(NCc1ccc(O)cc1)[C@@]12C[C@@H]3CN(Cc4cccc5ccccc45)[C@@H]([C@@H]3CN1)[C@H]2Cc1ccccc1` (relative stereo) [IF-472], the pIC50 was over 5.30. Consider `CC(C)C[C@@H]1[C@@H]2[C@@H]3CN[C@@]1(C(=O)NCc1ccc(O)cc1)C[C@@H]3CN2Cc1cccc2ccccc12` (relative stereo) [IF-473], for which the pIC50 is over 5.30. `CC(C)CC[C@@H]1[C@@H]2[C@@H]3CN[C@@]1(C(=O)NCc1ccc(O)cc1)C[C@@H]3CN2CC1CCCCC1` (relative stereo) [IF-474]: the pIC50 is over 5.30. Under `O=C(NCc1ccc(O)cc1)[C@@]12C[C@@H]3CN(CC4CCCCC4)[C@@H]([C@@H]3CN1)[C@H]2CCc1ccccc1` (relative stereo) [IF-475] stands 4.52 to 5.00; under `O=C(NCc1ccc(O)cc1)[C@@]12C[C@@H]3CN(CC4CCCCC4)[C@@H]([C@@H]3CN1)[C@H]2Cc1ccccc1` (relative stereo) [IF-477], over 5.30; under `CC(C)C[C@@H]1[C@@H]2[C@@H]3CN[C@@]1(C(=O)NCc1ccc(O)cc1)C[C@@H]3CN2CC1CCCCC1` (relative stereo) [IF-478], over 5.30. Regarding `CC(C)CC[C@@H]1[C@@H]2[C@@H]3CN[C@@]1(C(=O)NCc1ccc(O)cc1)C[C@@H]3CN2Cc1ccc(F)cc1` (relative stereo) [IF-479], the pIC50 was over 5.30. For the compound `O=C(NCc1ccc(O)cc1)[C@@]12C[C@@H]3CN(Cc4ccc(F)cc4)[C@@H]([C@@H]3CN1)[C@H]2Cc1ccccc1` (relative stereo) [IF-481], the pIC50 is 4.52 to 5.00. Take `CC(C)C[C@@H]1[C@@H]2[C@@H]3CN[C@@]1(C(=O)NCc1ccc(O)cc1)C[C@@H]3CN2Cc1ccc(F)cc1` (relative stereo) [IF-482]: the pIC50 is 4.52 to 5.00. Take `O=C(NCCO)[C@@]12C[C@@H]3CN(CC4CCCCC4)[C@@H]([C@@H]3CN1)[C@H]2Cc1ccccc1` (relative stereo) [IF-486]: the pIC50 was 4.52 to 5.00. In the case of `CC(C)CC[C@@H]1[C@@H]2[C@@H]3CN[C@@]1(C(=O)NCCO)C[C@@H]3CN2Cc1ccc(F)cc1` (relative stereo) [IF-490], the pIC50 is 4.52 to 5.00. Under `CC(C)CC[C@@H]1[C@@H]2[C@@H]3CN[C@@]1(C(=O)NCc1ccc(O)cc1)C[C@@H]3CN2Cc1ccccc1` (relative stereo) [IF-493] stands over 5.30.

`O=C(NCc1ccc(O)cc1)[C@@]12C[C@@H]3CN(Cc4ccccc4)[C@@H]([C@@H]3CN1)[C@H]2Cc1ccccc1` (relative stereo) [IF-494]: the pIC50 is 4.52 to 5.00. For `CC(C)CN1C[C@H]2C[C@]3(C(=O)NCc4ccc(O)cc4)NC[C@H]2[C@H]1[C@H]3Cc1cccc2ccccc12` (relative stereo) [IF-500] the value was 4.52 to 5.00. With `CC(C)CC[C@@H]1[C@@H]2[C@@H]3CN[C@@]1(C(=O)NC(C)C)C[C@@H]3CN2Cc1ccc(O)cc1` (relative stereo) [IF-503], the pIC50 is over 5.30. For `CC(C)NC(=O)[C@@]12C[C@@H]3CN(Cc4ccc(O)cc4)[C@@H]([C@@H]3CN1)[C@H]2Cc1cccc2ccccc12` (relative stereo) [IF-504] the value was 4.52 to 5.00. Regarding `O=C(NCc1ccccc1)[C@@]12C[C@@H]3CN(Cc4cccc5ccccc45)[C@@H]([C@@H]3CN1)[C@H]2Cc1ccc(O)cc1` (relative stereo) [IF-505], the pIC50 was over 5.30. Take `O=C(NCc1ccc(F)cc1)[C@@]12C[C@@H]3CN(CCO)[C@@H]([C@@H]3CN1)[C@H]2Cc1ccccc1` (relative stereo) [IF-508]: the pIC50 is 4.52 to 5.00.

As for `CCCCCCNC(=O)[C@@]12C[C@@H]3CN(CC4CCCCC4)[C@@H]([C@@H]3CN1)[C@H]2Cc1ccc(O)cc1` (relative stereo) [IF-514], the pIC50 was over 5.30. For `O=C(NCc1ccc(F)cc1)[C@@]12C[C@@H]3CN(CCO)[C@@H]([C@@H]3CN1)[C@H]2CCc1ccccc1` (relative stereo) [IF-516] the value was over 5.30; for `CC(C)CN1C[C@H]2C[C@]3(C(=O)NCc4ccc(F)cc4)NC[C@H]2[C@H]1[C@H]3CCc1ccccc1` (relative stereo) [IF-525], 4.52 to 5.00.

Consider `NC(=O)CCNC(=O)[C@@]12C[C@@H]3CN(CC4CCCCC4)[C@@H]([C@@H]3CN1)[C@H]2Cc1cccc2ccccc12` (relative stereo) [IF-536], for which the pIC50 is over 5.30. As for `NC(=O)CCNC(=O)[C@@]12C[C@@H]3CN(Cc4ccc(F)cc4)[C@@H]([C@@H]3CN1)[C@H]2Cc1cccc2ccccc12` (relative stereo) [IF-539], the pIC50 was over 5.30. For `CC(C)C[C@@H]1[C@@H]2[C@@H]3CN[C@@]1(C(=O)NCc1cccc4ccccc14)C[C@@H]3CN2CCO` (relative stereo) [IF-542] the value was over 5.30. For `O=C(NCc1cccc2ccccc12)[C@@]12C[C@@H]3CN(CCO)[C@@H]([C@@H]3CN1)[C@H]2Cc1ccc(O)cc1` (relative stereo) [IF-543] the value was 4.52 to 5.00; for `CC(C)CCN1C[C@H]2C[C@]3(C(=O)NCCc4ccccc4)NC[C@H]2[C@H]1[C@H]3Cc1ccc(O)cc1` (relative stereo) [IF-545], 4.52 to 5.00. Under `CCCCCCNC(=O)[C@@]12C[C@@H]3CN(CCC(C)C)[C@@H]([C@@H]3CN1)[C@H]2CC(C)C` (relative stereo) [IF-546] stands 4.52 to 5.00; under `CC(C)CCN1C[C@H]2C[C@]3(C(=O)NCc4ccc(F)cc4)NC[C@H]2[C@H]1[C@H]3Cc1ccccc1` (relative stereo) [IF-547], over 5.30; under `CC(C)CCN1C[C@H]2C[C@]3(C(=O)NCc4ccc(F)cc4)NC[C@H]2[C@H]1[C@H]3CC(C)C` (relative stereo) [IF-548], 4.52 to 5.00. For the compound `CCCCCCNC(=O)[C@@]12C[C@@H]3CN(Cc4ccccc4)[C@@H]([C@@H]3CN1)[C@H]2CC(C)C` (relative stereo) [IF-560], the pIC50 was over 5.30. For `O=C(NCc1ccc(F)cc1)[C@@]12C[C@@H]3CN(Cc4ccccc4)[C@@H]([C@@H]3CN1)[C@H]2Cc1ccccc1` (relative stereo) [IF-561] the value was over 5.30. In the case of `O=C(NCc1ccc(O)cc1)[C@@]12C[C@@H]3CN(Cc4ccccc4)[C@@H]([C@@H]3CN1)[C@H]2CCc1ccccc1` (relative stereo) [IF-565], the pIC50 is over 5.30.
